Assay results: US6818049B1, “Environmentally preferred fluids and fluid blends” (ExxonMobil Chemical Patents Inc., priority 1998, dated 2004)
Like-named read-outs stand apart in the source and are kept apart here. Marks after values point to notes of the source that are not given here.

Assays:
[1] = Fluid solvent properties; details: for Viscosity: 20° C.
Source text: One of ordinary skill in the art can readily determine the flash point of a fluid or blend (e.g., ASTM D92-78).
The evaporation rate should be suitable for the intended purpose. […] The fluid selected preferably will have a similar evaporation rate to the disadvantaged fluid being replaced, particularly in the case where a fluid blend is used and an acceptable evaporation profile is desired. It is convenient for the fluid selected to have an evaporation rate less than 12 times the evaporation rate of n-butyl acetate. Evaporation rates may also be given relative to n-butyl acetate at 1.0 (ASTM D3539-87). Ranges of evaporation rates important for different applications are 5-3, 3-2, 2-1, 1.0-0.3, 0.3-0.1, and <0.1, relative to n-butyl acetate at 1.0. The present invention is related to fluids and fluid blends that at least partially evaporate into the atmosphere during or after their application.

[2] = reported literature data, cited from earlier work
[3] = in vivo
Source text: One way to measure the toxic effects of a chemical is to measure the dose-effect relationship; the dose is usually measured in mg of chemical per kg of body mass. This is typically done experimentally by administering the chemical to mice or rats at several doses in the lethal range and plotting the logarithm of the dose versus the percentage of the population killed by the chemical. The dose lethal to 50% of the test population is called the median lethal dose (LD50) and is typically used as a guide for the toxicity of a chemical. […] EU (European Union) uses a cutoff of >2,000 mg/kg.

[4] = Stability to acid catalyst (pTSA) in acrylic solvent system, followed by gas chromatography; type: physicochemical; details: 0.5 wt % pTSA, 50° C.; for Wt. % of Solvent At One Week Decomposition Period / Wt. % of Solvent At Three Week Decomposition Period: nitrogen atmosphere, start = 100
Experimental: Acrylic solvent systems were prepared to test the stability of dimethyl carbonate to acid catalysts, which are commonly present in coating compositions. The formulations contained 29.9 wt % DMC, 28.7 wt % pentyl acetate, 20.2 wt % n-butyl acetate, 16.1 wt % n-butyl alcohol, 3.6 wt % methyl ethyl ketone, 1.5 wt % isopropyl alcohol. 2 wt % toluene as an internal standard. The latter materials were purchased from Aldrich Chemical Co.
Para toluene sulfonic acid (PTSA) was added to the above formulation (again, pTSA was purchased from Aldrich Chemical Co.), in the amount of 0.5 wt %. The solutions were sealed and placed in an oven at 50° C. under a nitrogen atmosphere. Samples were withdrawn at intervals for testing. The content of dimethyl carbonate was monitored over time by gas chromatographic analysis using an HP 5890 gas chromatograph. In a parallel experiment an equal amount of tert. Butyl acetate was used instead of DMC. The results are shown below in Table 8 (all percentages are by weight).

Compound | Boiling Temperature [1] [°C] | Evaporation Ratio to Butyl Acetate [1] | Specific Gravity [1] | Surface Tension [1] [dyn/cm] | Viscosity [1] [cps] | Flash Point [2] | LD50 [3] [mg/kg] | Wt. % of Solvent At One Week Decomposition Period [4] [wt. %] | Wt. % of Solvent At Three Week Decomposition Period [4] [wt. %] | further results
CC(C)=O [Acetone] | 56 | 18 | 0.792 | 22.3 | 0.33 | −20* ° C. | 5800 | – | – | Hansen Solubility Parameter, H-Bouding [1]: 3.4; Hansen Solubility Parameter, Nonpolar [1]: 7.6; Hansen Solubility Parameter, Polar [1]: 5.1; Hansen Solubility Parameter, Total [1]: 9.2
CCCCOC(C)=O [Butyl Acetate] | – | – | – | – | – | 27 °C | – | – | – | –
COC(=O)OC [DMC, dimethyl carbonate] | 90 | 3.2 | 1.065 | 29 | 0.60 | +19 to +32* ° C. | 13000 | 97.8 | 95.4 | Stability to acid catalysts (in words) [4]: more stable to acid catalysts than is t-butyl acetate
COC(=O)C(C)(C)C [MP, methyl pivalate] | 99 | 2.2 | 0.873 | 23.8 | 0.74 | – | – | – | – | Flash Point [1]: 27.2 °C
COC(C)=O [methyl acetate] | – | – | – | – | – | ~−12 °C | – | – | – | Flash Point ([2]; listed as Methyl acetate): about −12 °C
CC(=O)OC(C)(C)C [t-butyl acetate] | – | – | – | – | – | – | – | 54.4 | 17.2 | –
